B1: DI-17E6: antibody (CAS No: 1105038-73-0) having the biological characteristics of monoclonal mouse antibody 17E6, inhibits the αv-integrin subunit; improved immunogenicity (antibody, chains of the INN, looked up, V domains shown)
VH: QVQLQQSGGELAKPGASVKVSCKASGYTFSSFWMHWVRQAPGQGLEWIGYINPRSGYTEYNEIFRDKATMTTDTSTSTAYMELSSLRSEDTAVYYCASFLGRGAMDYWGQGTTVTVSS
VL: DIQMTQSPSSLSASVGDRVTITCRASQDISNYLAWYQQKPGKAPKLLIYYTSKIHSGVPSRFSGSGSGTDYTFTISSLQPEDIATYYCQQGNTFPYTFGQGTKVEIK

Columns and labels:
[1] = tested on: STC-1; experiment: STC-1 protein in HUVEC supernatants by Western blotting; type: cell-based, human; details: vitronectin-coated dishes
Method: (§1) Since secreted biomarkers are relevant, the individual candidates were analysed in supernatants of integrin-inhibitor treated cells. HUVEC were treated either DI-17E6 or cilengitide. After different times, culture supernatants were collected and analysed for different biomarker candidates by Western blotting, ELISA or Luminex. Drug-induced biomarker regulation was evaluated in comparison to control cells.
Culture supernatants were collected analysed for STC-1 by Western blotting. […] B) Regulation of STC-1 in response to cilengitide (FIG. 4).
HUVECs were cultured o/n in vitronectin-coated dishes and incubated with different concentration of Sutent or Sorafenib for 6 h to 48 h. Culture supernatants were collected analysed for STC-1 by Western blotting. A) Regulation of STC-1 in response to Sutent. B) Regulation of STC-1 in response to Sorafenib (FIG. 10).

[2] = tested on: IL-8; experiment: IL-8 in HUVEC supernatants by Luminex; type: cell-based, human; details: vitronectin-coated dishes
Method: as §1
Culture supernatants were collected analysed for IL-8 by Luminex. […] B) Regulation of IL-8 in response to cilengitide (FIG. 6).
HUVECs were cultured o/n in vitronectin-coated dishes and incubated with different concentration of Sutent or Sorafenib for 6 h to 48 h. Culture supernatants were collected analysed for IL-8 by Luminex. A) Regulation of IL-8 in response to Sutent. B) Regulation of IL-8 in response to Sorafenib (FIG. 12).

[3] = tested on: EDN1; experiment: EDN1 in HUVEC supernatants by ELISA; type: cell-based, human; details: vitronectin-coated dishes
Method: as §1
Culture supernatants were collected analysed for EDN1 by ELISA. […] B) Regulation of EDN1 in response to cilengitide (FIG. 8).
HUVECs were cultured o/n in vitronectin-coated dishes and incubated with different concentration of Sutent or Sorafenib for 6 h to 48 h. Culture supernatants were collected analysed for EDN1 by ELISA. A) Regulation of EDN1 in response to Sutent. B) Regulation of EDN1 in response to Sorafenib (FIG. 11).

[4] = phase III, cytokine-refractory advanced renal carcinoma patients; cited from earlier work
[5] = phase II trial; cited from earlier work
[6] = tested on: Xenograft models of colon, breast, and non-small cell lung cancer (NSCLC); details: cited from earlier work
[7] = tested on: HUVEC; experiment: Gene expression profiles of HUVEC after drug treatment (Affymetrix microarrays); type: cell-based, human; details: drug-treated vs non-treated or control-treated cells, filtered for secreted candidates
Description: (§2) Gene expression profiles were generated from experiments with each condition being tested in triplicates. For this, RNA was extracted from treated and control cells and hybridized to genome-wide Affymetrix oligonucleotide microarrays to generate gene expression profiles. After preprocessing with the GCRMA algorithm (Wu Z, Journal American Statistical Association 2004; 99: 909-917), Affymetrix GeneChip data were filtered to exclude probe sets with low variability, low signal or poor probe annotation. Genes were specifically filtered to obtain secreted candidates that might be detectable in body fluids in humans and could be monitored in a non-invasive way in patients.

[8] = tested on: FAK; experiment: Western blot of integrin signalling in HUVEC plated on vitronectin: FAK; type: cell-based, human; details: for phosphorylation of FAK: HUVEC, Western blot, following treatment
Method: as §2, with “To identify biomarkers associated with treatment, HUVEC were treated with cilengitide or DI-17E6. […] Gene expression” for “Gene expression”, “in patients. […] Genes which show under the given condition an extraordinary response / response change/responsiveness are underlined.” for “in patients.”
(§3) Besides growth factor stimulation, integrin-mediated adhesion to the extracellular matrix is important to promote cell proliferation, survival, and migration. Upon integrin ligation a wide range of intracellular signaling events are induced, including activation of Ras, MAPK, FAK, Src, Rac/Rho/cdc42 GTPases. To support survival of endothelial cells during angiogenesis, integrins alpha(V) beta(3)/(5) together with FAK are required for a sustained activation of the MAPK cascade (i.e. ERK1/2). […] After 24 h of treatment, cell lysates were prepared and analysed by Western blotting. Effects on signaling pathways were evaluated by comparing the ratio of phosphorylated to total levels of the respective signaling molecule in order to account for potential effects arising from cell detachment.

[9] = tested on: ERK1/2; experiment: Western blot of integrin signalling in HUVEC plated on vitronectin: MAPK (ERK1/2); type: cell-based, human; details: for phosphorylation of MAPK: HUVEC, Western blot, following treatment
Method: as §2, with “To identify biomarkers associated with treatment, HUVEC were treated with cilengitide or DI-17E6. […] Gene expression” for “Gene expression”, “in patients. […] Genes which show under the given condition an extraordinary response / response change/responsiveness are underlined.” for “in patients.”
as §3

[10] = tested on: ADAMTS1; experiment: ADAMTS1 protein in HUVEC supernatants by Western blotting; type: cell-based, human; details: vitronectin-coated dishes, 6 h to 72 h, vs control cells
Method: as §1
Culture supernatants were collected analysed for ADAMTS1 by Western blotting.
HUVECs were cultured o/n in vitronectin-coated dishes and incubated with different concentration of cilengitide for 6 h to 72 h. Culture supernatants were collected analysed for ADAMTS1 by Western blotting. A) Cilengitide mediated regulation of ADAMTS1 (65 kD and 85 kD). (FIG. 3).

[11] = tested on: MCP-1; experiment: MCP-1 in HUVEC supernatants by Luminex; type: cell-based, human; details: vitronectin-coated dishes, 6 h to 72 h
Method: as §1
Culture supernatants were collected analysed for MCP-1 by Luminex. […] B) Regulation of MCP-1 in response to cilengitide (FIG. 5).

[12] = tested on: activin A; experiment: Activin A in HUVEC supernatants by ELISA; type: cell-based, human; details: vitronectin-coated dishes, 6 h to 72 h
Method: as §1
Culture supernatants were collected analysed for activin A by ELISA. […] B) Regulation of activin A in response to cilengitide (FIG. 9).

[13] = tested on: PDGF-BB; experiment: PDGF-BB in HUVEC supernatants by ELISA; type: cell-based, human; details: vitronectin-coated dishes, 6 h to 72 h
Method: as §1
Culture supernatants were collected analysed for PDGF-BB by ELISA. […] B) Regulation of PDFG-BB in response to cilengitide (FIG. 7).

[14] = tested on: angiogenesis in matrigel plugs; experiment: bFGF-induced angiogenesis in matrigel plugs in monkeys (hemoglobin content); type: in vivo, Cynomolgus monkeys; details: single i.v. infusion at 100, 30, 10, or 3 mg/kg; after 6 days; 5 μg/mL bFGF
Method: In this model, angiogenesis was induced in matrigel plugs by the angiogenic growth factor bFGF. Matrigel plugs containing bFGF were implanted subcutan into the abdomen of healthy Cynomologus monkeys, and the animals were injected with DI-17E6 i.v. at different doses immediately thereafter. Evaluation of angiogenesis was carried out after matrigel implantation by quantification of the hemoglobin content in the matrigel plugs. Each condition was tested in different animals implanted with matrigel plugs.
Angiogenesis was induced in subcutaneous matrigel implants containing 5 μg/mL of bFGF in Cynomolgus monkeys. […] After 6 days, angiogenesis was quantified by measuring the hemoglobin content in the matrigel plugs. * denotes a p-value <0.05 and ** denotes a p-value <0.01 (FIG. 13).

[15] = tested on: CRP; details: DI-17E6-treated vs placebo-treated animals, 6 days
Method: Absolute concentrations of different proteins were measured by Luminex by comparing to respective standards.
Plasma was collected and analysed for CRP and IL-6 by Luminex. A) Regulation of CRP. B) Regulation of IL-6 (FIG. 14).

[16] = tested on: IL-6; experiment: Plasma IL-6 by Luminex in monkeys with matrigel plugs; type: in vivo, Cynomolgus monkeys; details: DI-17E6-treated vs placebo-treated animals, 6 days
Description: A) Regulation of CRP. B) Regulation of IL-6 (FIG. 14).

[17] = HUVEC on vitronectin, 24 h, DI-17E6 0.01 to 10 μg/mL, cilengitide 0.01 to 10 μM
[18] = integrin inhibitors, 24 h to 72 h
[19] = integrin inhibitors, 6 h to 72 h

Molecule | phosphorylation of FAK [8] | phosphorylation of MAPK [9] | ADAMTS1 protein level in HUVEC supernatants [10] | STC-1 protein level in HUVEC supernatants [1, 18] | MCP-1 level in HUVEC supernatants [11] | IL-8 level in HUVEC supernatants [2, 19] | Activin A level in HUVEC supernatants [12] | EDN1 level in HUVEC supernatants [3, 19] | PDGF-BB level in HUVEC supernatants [13] | other results
CNC(=O)c1cc(Oc2ccc(NC(=O)Nc3ccc(Cl)c(C(F)(F)F)c3)cc2)ccn1 [Sorafenib] | – | – | – | – | – | – | – | – | – | STC-1 protein level in HUVEC supernatants ([1]; kinase inhibitors, 6 h to 48 h): down-regulated; IL-8 level in HUVEC supernatants ([2]; kinase inhibitors, 6 h to 48 h): reduced protein levels; EDN1 level in HUVEC supernatants ([3]; kinase inhibitors, 6 h to 48 h): up-regulated; side effect: diarrhea [4]: 33%; side effect: fatigue [4]: 26%; side effect: hand-foot skin reactions [4]: 27%; side effect: hypertension [4]: 11%; side effect: rash [4]: 34%; additional patients who experienced tumor shrinkage [5]: 9%; patients who experienced stable disease for at least 4 months [5]: 43%; tumor angiogenesis, as measured by anti-CD31 immunostaining [6]: significant inhibition of tumor angiogenesis
CC(C)[C@H]1C(=O)N[C@@H](CCCN=C(N)N)C(=O)NCC(=O)N[C@@H](CC(=O)O)C(=O)N[C@H](Cc2ccccc2)C(=O)N1C [cilengitide, cyclo-(Arg-Gly-Asp-DPhe-NMeVal)] | inhibited | inhibited | up-regulated | up-regulated | down-regulated | down-regulation | down-regulated | down-regulated | down-regulated | Genes down-regulated in response to treatment (RNA level) [7]: INHBA, EDN1, FST, DKK4, BMP4, MCP1, HHIP, NTN4, PHLDB2, PVR, CYR61, AUTS2, MERTK, FSTL3, APLN, PTX3, ANGPTL4, CTGF, SPOCK, IL8, NRG1, DKK3, CD44, BCHE, BDNF, FBXO4, EFEMP1, STC2; Genes up-regulated in response to treatment (RNA level) [7]: ADAMTS 9, DAF, STC1, ADAMTS1, LAMAS, TCN2, SRPX, ADAM15, GUSB, HYAL2, PLAUR, CD40, NOTCH1, ENPP4; activation of FAK (ratio of phosphorylated to total) [8, 17]: blocked activation; activation of ERK1/2 (ratio of phosphorylated to total) [9, 17]: blocked activation
B1 | inhibited | inhibited | up-regulated | up-regulated | down-regulated | up-regulated | down-regulated | down-regulated | down-regulated | angiogenesis (hemoglobin content in the matrigel plugs) [14]: blocked the formation of new blood vessel at all doses; plasma CRP [15]: up-regulated; plasma IL-6 [16]: up-regulated

Reference: patent US20120004129A1, “BIOMARKERS FOR INHIBITORS WITH ANTI-ANGIOGENIC ACTIVITY” (Merck Patent GmbH, priority 2008, published 2012)
